# Laboratory results: publication PMC7165421 (Proceedings of the National Academy of Sciences of the …, 2020)
# How the values were obtained:
# ΔNTD AR = experiment: Peptide binding by fluorescence polarization; set-up: species or system mouse
# AR LBD = settings: cited from earlier work
# ARE/Scr dsDNA = experiment: DNA binding by fluorescence polarization, ARE/Scr dsDNA; settings: ΔNTD AR expressed and purified in presence of enzalutamide (20 μM) vs DHT
# [1] = test system: AR binding from chromatin; settings: ChIP assays; cited from earlier work
# ARE dsDNA = experiment: DNA binding by fluorescence polarization, minimal ARE dsDNA; settings: ΔNTD AR, specificity control
# [2] = test system: ARE containing double-stranded DNA (dsDNA) templates; experiment: DNA binding by fluorescence polarization, all ARE dsDNAs tested; settings: FL AR relative to ΔNTD AR, DHT-bound
molecule,measurement,setting,value
KTYRGAFQNLFQSVREA [AF1],binding to ΔNTD AR with full-length ERG present,"ΔNTD AR; equimolar full-length ERG, fluorescein-labeled AF1 peptide",further decrease in AF1 binding
same,affinity for ΔNTD AR compared to ERG AIM peptide,"ΔNTD AR; presence and absence of DNA, fluorescein-labeled AF1 peptide",more than an order of magnitude reduced affinity
same,affinity of AF1 for AR LBD,AR LBD,micromolar
QIQLWHFILELLRKEEY [ERF AIM],affinity compared to the ERG AIM,ΔNTD AR; ΔNTD AR,slightly less than the ERG AIM
"CNC(=O)c1ccc(N2C(=S)N(c3ccc(C#N)c(C(F)(F)F)c3)C(=O)C2(C)C)cc1F [ENZ, enzalutamide]",reduction of AR DNA binding relative to DHT,ARE/Scr dsDNA,twofold
same,displacement of AR from chromatin,[1],displaces AR binding from chromatin in cells
bovine serum albumin (BSA): specificity control,stimulation of AR DNA binding,ARE dsDNA,failed to stimulate AR
FL AR: recombinant AR with the N terminus intact (protein) MEVQLGLGRVYPRPPSKTYRGAFQNLFQSVREAIQNPGPRHPEAANIAPPGACLQQRQETSPRRRRRQQHTEDGSPQAHIRGPTGYLALEEEQQPSQQQAASEGHPESSCLPEPGAATAPGKGLPQQPPAPPDQDDSAAPSTLSLLGPTFPGLSSCSADIKDILNEAGTMQLLQQQQQQQQHQQQHQQHQQQQEVISEGSSARAREATGAPSSSKDSYLGGNSTISDSAKELCKAVSVSMGLGVEALEHLSPGEQLRGDCMYASLLGGPPAVRPTPCAPLPECKGLPLDEGPGKSTEETAEYSSFKGGYAKGLEGESLGCSGSSEAGSSGTLEIPSSLSLYKSGALDEAAAYQNRDYYNFPLALSGPPHPPPPTHPHARIKLENPLDYGSAWAAAAAQCRYGDLGSLHGGSVAGPSTGSPPATTSSSWHTLFTAEEGQLYGPGGGGGSSSPSDAGPVAPYGYTRPPQGLTSQESDYSASEVWYPGGVVNRVPYPSPNCVKSEMGPWMENYSGPYGDMRLDSTRDHVLPIDYYFPPQKTCLICGDEASGCHYGALTCGSCKVFFKRAAEGKQKYLCASRNDCTIDKFRRKNCPSCRLRKCYEAGMTLGARKLKKLGNLKLQEEGENSNAGSPTEDPSQKMTVSHIEGYECQPIFLNVLEAIEPGVVCAGHDNNQPDSFAALLSSLNELGERQLVHVVKWAKALPGFRNLHVDDQMAVIQYSWMGLMVFAMGWRSFTNVNSRMLYFAPDLVFNEYRMHKSRMYSQCVRMRHLSQEFGWLQITPQEFLCMKALLLFSIIPVDGLKNQKFFDELRMNYIKELDRIIACKRKNPTSCSRRFYQLTKLLDSVQPIARELHQFTFDLLIKSHMVSVDFPEMMAEIISVQVPKILSGKVKPIYFHTQ,impairment of DNA binding by presence of NTD,[2],greater than 10 fold
